According to US20190225650A1, “PEPTIDOMIMETIC MACROCYCLES AND USE THEREOF IN REGULATING HIF1ALPHA” (AILERON THERAPEUTICS, INC., priority 2013, published 2019):
Bridge positions count the residues as written; N and C are the ends. Square brackets hold non-standard residues; d marks the D form. Peptide text beside a SMILES is read from it. R8 = C=CCCCCCC[C@@](C)(N)C(=O)O; S5 = C=CCCC[C@](C)(N)C(=O)O; Nle = CCCC[C@H](N)C(=O)O

How the values were obtained:
[1] = biological target: T1, flag-tagged HIF1α (AA 786-826) / His6-tagged p300 (AA 323-423) complex (Homo sapiens, UniProt Q09472); assay: HIF1α p300 displacement assay (TR FRET, +CHAPS); format: binding; conditions: read-out: IC50 (nM) (HIF1α_p300 Displacement + CHAPS)
T1 construct: His6-tagged p300 (AA 323-423); made in house; host or cells: E. coli (pETDuet vector)
Method in brief: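 In this TR-FRET displacement format, peptides compete HIF1α C-terminal transactivation domain off p300-CH. They were preincubated 1 h at room temperature with 300 nM complex in HEPES pH 7.4/NaCl buffer with 7.5 mM CHAPS and 1 mM DTT. Anti-His-D2 (4 nM) and anti-Flag-K (0.5 μM) followed for 2 h, and a one-site fit of the fluorescence ratio gave IC50.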

HRE-bla ME-180 cells [2] = assay: Reporter gene assay (HRE-bla ME-180 HIF reporter, GeneBLAzer); format: cell-based, human; conditions: for EC50: 24 hour normoxia
Method in brief: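 A FRET β-lactamase readout of HIF transcription was used. After compound treatment in 0.3% DMSO/media under normoxic conditions, 20 μl of 6× LiveBLAzer-FRET B/G (CCF4-AM) substrate was added. Plates sat 3 hr at room temperature in the dark and were read at 409 Ex/460Em and 409Ex/530Em on a Synergy 2. Inhibition was compared against DMSO vehicle controls, with chetomin as positive control.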

HRE-bla ME-180 cells [3] = assay: Cell proliferation assay (viability, MTT, 1% FBS); format: cell-based, human
Method in brief: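 Viable cell number was measured with the CellTiter 96 (MTT) kit after compounds were applied for a 16 h normoxic (21% O2) pretreatment, followed by further normoxic or hypoxic (1% O2) culture. Cells: 2×10^4 ME-180 per well, Opti-MEM + 1% FBS, 0.5% DMSO vehicle.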

IC50 [1] [nM]	EC50 (HRE-bla ME-180 cells [2]) [µM]	Compound	18 h Avg % max inhibition at top conc (HIF Rptr-24 hrs normoxia) (μM) (HRE-bla ME-180 cells [2])	Viability 1% FBS AVG (MTT V3-24 hr Normoxia) (μM) (HRE-bla ME-180 cells [3])
≤ 200	15 to 30	CCCC[C@@H]1NC(=O)[C@H](CC(C)C)NC(=O)[C@H](C(C)C)NC(=O)[C@@](C)(NC(=O)[C@H](CCC(=O)O)NC(=O)[C@H](CC(=O)O)NC(=O)[C@@H](NC(=O)[C@H](Cc2ccccc2)NC(C)=O)[C@@H](C)CC)CCCC=CCCC[C@@](C)(C(=O)N[C@@H](CC(C)C)C(=O)N[C@H](C(=O)N[C@H](C(=O)N[C@@H](CCC(=O)O)C(=O)N[C@@H](CCSC)C(=O)N[C@@H](C)C(=O)N[C@@H](CC(C)C)C(=O)N[C@@H](CC(=O)O)C(=O)N[C@@H](CCCNC(=N)N)C(=O)N[C@H](C(N)=O)[C@@H](C)CC)[C@@H](C)CC)C(C)C)NC1=O [SP-118] (Ac-FIDE[S5]VL[Nle][S5]LVIEMALDRI-NH2; staple 5-9)	+++ (≤25 but <50: +++)	++++ (≥30: ++++)
400 to 700	> 30	CCCC[C@H](NC(=O)[C@]1(C)CCCC=CCCC[C@](C)(NC(=O)[C@H](CCCC)NC(=O)[C@H](CC(C)C)NC(=O)[C@@H](NC(=O)[C@H](CCC(=O)O)NC(=O)[C@H](CCC(=O)O)NC(=O)[C@H](CC(=O)O)NC(=O)[C@@H](NC(=O)[C@H](CC(N)=O)NC(=O)[C@@H](NC(=O)[C@H](CCC(N)=O)NC(=O)[C@H](CC(=O)O)NC(=O)[C@H](CC(C)C)NC(=O)[C@H](C)NC(=O)[C@H](CCCNC(=N)N)NC(=O)[C@H](CC(C)C)NC(=O)[C@H](CC(C)C)NC(=O)[C@H](CCC(=O)O)NC(=O)[C@H](CCC(=O)O)NC(=O)CNC(=O)[C@H](CCC(N)=O)NC(=O)[C@H](CC(C)C)NC(=O)[C@H](CC(C)C)NC(C)=O)C(C)C)[C@@H](C)CC)C(C)C)C(=O)N[C@@H](CC(C)C)C(=O)N[C@@H](C(C)C)C(=O)N[C@@H]([C@@H](C)CC)C(=O)N1)C(N)=O [SP-335] (Ac-LLQGEELLRALDQVNIDEEVL[Nle][S5]LVI[S5][Nle]-NH2; staple 23-27)	+ (<10: +)	++++ (≥30: ++++)
≤ 200	> 30	CC[C@H](C)[C@H](NC(=O)[C@H](CCCNC(=N)N)NC(=O)[C@H](CC(=O)O)NC(=O)[C@H](CC(C)C)NC(=O)[C@H](C)NC(=O)[C@H](CCSC)NC(=O)[C@H](CCC(=O)O)NC(=O)[C@@H](NC(=O)[C@@H](NC(=O)[C@H](CC(C)C)NC(=O)[C@]1(C)CCCC=CCCC[C@](C)(NC(=O)[C@H](CCC(=O)O)NC(=O)[C@H](CC(=O)O)NC(=O)[C@@H](NC(=O)[C@H](Cc2ccccc2)NC(C)=O)[C@@H](C)CC)C(=O)N[C@@H](C(C)C)C(=O)N[C@@H](CC(C)C)C(=O)N[C@@H](CCSC)C(=O)N1)C(C)C)[C@@H](C)CC)C(N)=O [SP-108] (Ac-FIDE[S5]VLM[S5]LVIEMALDRI-NH2; staple 5-9)	++ (≤10 but <25: ++)	++++ (≥30: ++++)
400 to 700	15 to 30	CCCC[C@H](NC(=O)[C@H](Cc1ccccc1)NC(=O)[C@@H](NC(=O)[C@H](CCC(=O)O)NC(=O)[C@H](CCC(=O)O)NC(=O)[C@H](CC(=O)O)NC(=O)[C@@H](NC(C)=O)[C@@H](C)CC)C(C)C)C(=O)N[C@@]1(C)CCCC=CCCC[C@@](C)(C(=O)N[C@@H](CCCC)C(=O)N[C@@H](C)C(=O)N[C@@H](CC(C)C)C(=O)N[C@@H](CC(C)C)C(N)=O)NC(=O)[C@H]([C@@H](C)CC)NC(=O)[C@H](C(C)C)NC(=O)[C@H](CC(C)C)NC1=O [SP-243] (Ac-IDEEVF[Nle][S5]LVI[S5][Nle]ALL-NH2; staple 8-12)	++++ (≥50: ++++)	++++ (≥30: ++++)
> 700	> 30	CCCC[C@H](NC(=O)[C@H](CC(C)C)NC(=O)[C@@H](NC(=O)[C@H](CCC(=O)O)NC(=O)[C@H](CCC(=O)O)NC(=O)[C@H](CC(=O)O)NC(=O)[C@@H](NC(=O)[C@H](CC(N)=O)NC(=O)[C@@H](NC(=O)[C@H](CCC(N)=O)NC(=O)[C@]1(C)CCCC=CCCCCCC[C@@](C)(NC(=O)CNC(=O)[C@H](CCC(N)=O)NC(=O)[C@H](CC(C)C)NC(=O)[C@H](CC(C)C)NC(C)=O)C(=O)N[C@@H](CCC(=O)O)C(=O)N[C@@H](CC(C)C)C(=O)N[C@@H](CC(C)C)C(=O)N[C@@H](CCCNC(=N)N)C(=O)N[C@@H](C)C(=O)N[C@@H](CC(C)C)C(=O)N1)C(C)C)[C@@H](C)CC)C(C)C)C(=O)N[C@@]1(C)CCCC=CCCC[C@@](C)(C(=O)N[C@@H](CCCC)C(=O)NCC(N)=O)NC(=O)[C@H]([C@@H](C)CC)NC(=O)[C@H](C(C)C)NC(=O)[C@H](CC(C)C)NC1=O [SP-342] (Ac-LLQG[R8]ELLRAL[S5]QVNIDEEVL[Nle][S5]LVI[S5][Nle]G-NH2; staple 5-12, 23-27)	+++ (≤25 but <50: +++)	++++ (≥30: ++++)
200 to 400	5 to 15	CC[C@H](C)[C@H](NC(=O)[C@H](Cc1ccccc1)NC(C)=O)C(=O)N[C@@H](CC(=O)O)C(=O)N[C@@H](CCC(=O)O)C(=O)N[C@@]1(C)CCCC=CCCC[C@@](C)(C(=O)N[C@@H](CC(C)C)C(=O)N[C@H](C(=O)N[C@H](C(=O)N[C@@H](CCC(=O)O)C(=O)N[C@@H](CCSC)C(=O)NCC(=O)N[C@@H](CC(C)C)C(=O)N[C@@H](CC(=O)O)C(=O)N[C@@H](CCCNC(=N)N)C(=O)N[C@H](C(=O)N[C@@H](CCCCN)C(=O)N[C@@H](CCC(=O)O)C(=O)N[C@@H](CC(C)C)C(=O)N2CCC[C@H]2C(=O)N[C@@H](CCC(=O)O)C(=O)N[C@@H](CC(C)C)C(=O)N[C@@H](Cc2c[nH]c3ccccc23)C(=O)N[C@@H](CC(C)C)C(N)=O)[C@@H](C)CC)[C@@H](C)CC)C(C)C)NC(=O)[C@H](CCSC)NC(=O)[C@H](CC(C)C)NC(=O)[C@H](C(C)C)NC1=O [SP-104] (Ac-FIDE[S5]VLM[S5]LVIEMGLDRIKELPELWL-NH2; staple 5-9)	++++ (≥50: ++++)	++++ (≥30: ++++)
200 to 400	> 30	CCCC[C@H](NC(=O)[C@H](CCC(=O)O)NC(=O)[C@@H](NC(=O)[C@@H](NC(=O)[C@H](CC(C)C)NC(=O)[C@]1(C)CCCC=CCCC[C@](C)(NC(=O)[C@H](CCC(=O)O)NC(=O)[C@H](CC(=O)O)NC(=O)[C@@H](NC(=O)[C@H](Cc2ccccc2)NC(=O)[C@H](CCCCN)NC(C)=O)[C@@H](C)CC)C(=O)N[C@@H](C(C)C)C(=O)N[C@@H](CC(C)C)C(=O)N[C@@H](CCCC)C(=O)N1)C(C)C)[C@@H](C)CC)C(=O)N[C@@H](C)C(=O)N[C@@H](CC(C)C)C(N)=O [SP-134] (Ac-KFIDE[S5]VL[Nle][S5]LVIE[Nle]AL-NH2; staple 6-10)	+++ (≤25 but <50: +++)	++++ (≥30: ++++)
